Measurements reported in patent publication US10617697B2, “Extracts of edible fungi enriched in vitamin D and compostions thereof and their use in the treatment of immune-related disorders” (GAVISH-GALILEE BIO APPLICATIONS LTD, priority 2015, dated 2020).

Test system: immune-mediated hepatitis harboring mice
Assay: ConA hepatitis in mice, serum liver enzymes after oral pre-treatment
Format: in vivo, C57BL/6 mice
Details: for ALT serum levels: serum 16 hours after ConA
Experimental: Male C57BL/6 mice (11-12 weeks old) were obtained from Harlan Laboratories (Jerusalem, Israel) and maintained in the Animal Core of the Hadassah-Hebrew University Medical School. Mice were administered standard laboratory chow and water ad libitum and kept in a 12 hour light/dark cycle. Animal experiments were carried out according to the guidelines of the Hebrew University-Hadassah Institutional Committee for Care and Use of Laboratory Animals and with the committee's approval.
Concanavalin A (ConA, MP Biomedicals, USA) was dissolved in 50 mM Tris pH 7, 150 mM NaCl, 4 mM CaCl2 and was injected into the tail vein at a dose of 500 μg/mouse (15 mg/kg) in the first experiment, and 400 μg/mouse in the second experiment. Mice were sacrificed 16 hours following ConA injection. Blood and liver tissue were collected for further analysis
Two consecutive experiments were conducted. In the first study, 4 groups of mice were studied (n=5-6 mice/group). Mice in control group were treated 2 hours before ConA injection with DDW (di distilled water). The first treated group received vitamin D oral supplement (1 IU of vitamin D in saline) twice daily for 3 days prior to Concanavalin A-induced immune liver damage. The second treated group was treated orally with crude freeze-dried biomass derived from Lentinula edodes (LE) edible mushrooms (7.5 mg of mushrooms) at the same timing and frequency, while the third treated group was treated with vitamin D enriched LE (7.5 mg of freeze-dried mushrooms containing 1.125 IU of vitamin D). In a subsequent study, four groups of mice (n=5-7 mice/group) were treated by the same protocol detailed above, but the frequency of the oral treatment was increased from two to three times daily.
Serum was obtained from individual mice after sacrifice. The serum aspartate aminotransferase (AST) and alanine aminotransferase (ALT) levels were determined with an automatic analyzer.

Q: Which results are given for `C=C1CC[C@H](O)C/C1=C/C=C1\CCC[C@]2(C)[C@@H]([C@H](C)/C=C/[C@H](C)C(C)C)CC[C@@H]12` [vitamin D, ergocalciferol]?
A: proportion of severe liver injury (defined as ALT>2611 U/L) (first experiment, oral twice daily for 3 days before ConA): 60%; ALT serum levels (first experiment, oral twice daily for 3 days before ConA 500 μg/mouse): 2802 U/L; proportion of severe liver injury (defined as ALT >2000 U/L) (second experiment, oral three times daily for 3 days before ConA): 100%; proportion of severe liver injury by AST (defined as AST>2000 U/L) (second experiment, oral three times daily for 3 days before ConA, data not shown): 100%; ALT serum levels (second study, oral three times daily for 3 days before ConA 400 μg/mouse): 4040 U/L
